Measurements taken from patent US10238702B2, “Pharmaceutical composition, preparation method therefor and use thereof” (SICHUAN JIUZHANG BIOLOGICAL SCIENCE AND TECHNOLOGY CO., LTD, priority 2013, dated 2019).
Marks after values point to notes of the source that are not given here.

What was measured:
mouse macrophages = assay: Carbon granules clearance test; assay type: in vivo, Kunming mice; settings: once per day for four weeks, 300 mg/kg (Mannatide 20 mg/kg); for α value (X ± SD): corrected phagotrophic index; for K value (X ± SD): Indian ink via vena caudalis, blood at 1 and 5 min
Protocol: Kunming mice were randomly divided into seven groups according to gender and body weight, with 10 mice in each group. As the dose design in Table 14, all groups were administrated once per day at a dose of 0.4 ml/20 g for successive four weeks. Mice were weighed for two times per week, to adjust the drug dosage. One hour after final administration, each mouse in each group was injected with Indian ink [(1:4)0.1 ml·10 g^−1] via vena caudalis. […] After animals were sacrificed by cervical dislocation, liver and spleen were collected and weighed, to calculate the phagotrophic index K=(log OD^1−log OD2)/(t2−t1) and correct the phagotrophic index α=[body weight/(liver weight+spleen weight)]×K^1/3.

[1] = system: mouse peritoneal macrophages; assay: Phagocytosis test of chicken red blood cell; assay type: in vivo, Kunming mice; settings: intragastric once per day for four weeks, 300 mg/kg (Mannatide 20 mg/kg); for Phagotrophic percentage (%, X ± SD): chicken red blood cells phagocytized by 100 macrophages
Protocol: Kunming mice were randomly divided into seven groups according to gender and body weight, with 12 mice in each group. As the dose design, all groups received one intragastric administration per day at a dose of 0.4 ml/20 g for successive four weeks. Mice were weighed for two times per week, to adjust the drug dosage. 30 minutes after final administration, each mouse in each group was injected intraperitoneally with 5% chicken erythrocyte suspension at a dose of 1.0 ml/mouse. Six hours after injection, animals were sacrificed by cervical dislocation, and received 2 ml physiological saline via peritoneal injection, while the abdomen of mice was gently massaged. Then, one pin hole was cut in the center of peritoneum, and washing water in peritoneal cavity was extracted, dropped on microscope slide, and cultured for 30 min in incubator at 37° C. The solution was washed with normal saline, fixed using methanol, and dyed by Giemsa staining. The numbers of chicken red blood cell phagocytized by 100 macrophages were observed under oil immersion lens. The phagotrophic percentage and the phagotrophic index were calculated according to the following formula, and results were shown in Table 15. [formula] [formula]

oxygen radicals = assay: Metabolism of in vivo oxygen radicals (serum SOD activity, MDA content); set-up: species or system C57BL/6 mice; settings: blood serum, intragastric once per day for four weeks, 300 mg/kg (IFNa-2b 300 0000 IU)
Protocol: Experimental methods: C57BL/6 mice were randomly divided to eight groups as body weight, with 10 mice in each group. According to the dose design in Table 14, all groups received one intragastric administration per day at a dose of 0.4 ml/20 g for successive four weeks. Mice were weighed for two times per week, to adjust the drug dosage. On the last day of experiment, blood samples were drawn from femoral artery of animals and centrifuged to collect blood serum. Using TBA colorimetric method and xanthine oxidase method, application of sample was performed according to procedures of kit instructions, and absorbance values were measured at wavelengths of 532 nm and 550 nm using UV2300 Ultraviolet spectrophotometer. MDA content and SOD activity were calculated, respectively.

## Mannatide [reference compound]
Mouse macrophages
  α value (X ± SD): 4.43 ± 1.06
  K value (X ± SD): 0.019 ± 0.013
[1]
  Phagotrophic index (X ± SD): 0.57 ± 0.05***^ΔΔ
  Phagotrophic percentage (%, X ± SD): 40.32 ± 2.25***^ΔΔ %

## O=C(/C=C/c1ccc(O)c(O)c1)O[C@@H]1C[C@](O)(C(=O)O)C[C@@H](O)[C@H]1O [Chologenic acid, Chlorogenic acid]
Oxygen radicals; TBA colorimetric method
  MDA(nmol/L) (x ± s): 27.14 ± 3.41 nmol/L
Oxygen radicals; xanthine oxidase method
  SOD(U/L) (x ± s): 218.73 ± 25.32 ^ U/L
Mouse macrophages
  α value (X ± SD): 3.94 ± 1.05
  K value (X ± SD): 0.019 ± 0.011
[1]
  Phagotrophic index (X ± SD): 0.52 ± 0.07
  Phagotrophic percentage (%, X ± SD): 36.58 ± 4.50 %
